This is an account of results in US11479533B2, “Inhibitors of Rho associated coiled-coil containing protein kinase” (KADMON CORPORATION, LLC, priority 2017, dated 2022).

pIC50: −log10 of the molar value. Where two headings read alike, the source gives them in different places.

Series [1] deals with human oligodendrocyte/neuron progenitor cells. Put plainly: Chondroitin Sulfate Proteoglycan (CSPG) assay on human oligodendrocyte/neuron progenitors. It counts as cell-based. The following applies: 1 μM and 3 μM, 72 hour. As for the experimental part: Chondroitin Sulfate Proteoglycan (CSPG) assay on human oligodendrocyte/neuron progenitors in 96-well plate. […] Cells were seeded on the coated plates at a density of 6,000 cells per well in expansion media. The following day the expansion media was replaced with fresh spontaneous differentiation media containing testing compounds. Cells were imaged and neurite length was analyzed by IncuCyte S3 Live Cell Analysis System every 4 hours.

The test system of series [2] is ppMlc (T18/S19) and pMypt (T853) in Svec 4-10 mouse endothelial cells. In words: Western blot of Svec 4-10 cell lysates. In kind it is cell-based. The following applies: 110 nM, 120 min. The protocol:
FIG. 1d. Western blot of SVEC4-10 cell lysates to visualize ppMlc (T18/S19) & pMYPT (T853) levels following treatment with the compound of Example 2 for 120 min. SVEC4-10 cells were treated with the compound and phosphorylated proteins were visualized by western blotting.
Compounds ROCK activities were tested in additional cell types. Svec 4-10 mouse endothelial cells were treated with the compound of Example 2 for 120 min and ppMlc (T18/S19) and pMypt (T853) levels were visualized by western blotting.

Series [3] concerns the target recombinant ROCK2 (amino acids 1-552) (Homo sapiens (Human), UniProt O75116). In words: Z'-lyte kinase assay, ROCK2. It counts as biochemical. A digest of the protocol:
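Inhibition of recombinant human ROCK2 (residues 1-552, sourced from ThermoFisher Scientific) was assessed in vitro with the Z'-lyte kinase kit. Kinase activity with compound was normalized to DMSO control to give percent inhibition. IC50s came from 9-point 2-fold serial dilutions fitted by nonlinear regression in GraphPad Prism.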

Series [4] concerns bleomycin induced lung fibrosis. Put plainly: Bleomycin induced lung fibrosis in mice (prophylactic administration). In kind it is in vivo, mouse. To be noted: oral once daily, 21-day treatment; ≥10 mg/kg. As for the experimental part:
Bleomycin induced lung fibrosis in mice (Phrophylactic administration): Male C57B/L6 mice were ear tagged and weighed prior to the start of the study. Treatment group animals were treated with the compound on day −1 pre-bleomycin and all subsequent days post-bleomycin administration. On day 0, animals in disease groups received 1.5 U/kg dose of bleomycin via oropharyngeal route. The non-bleomycin control group received sterile saline. Animals were closely monitored daily till the end of the study. On day 21 following bleomycin administration, all animals were euthanized and blood, lung, and bronchoalveolar lavage (BAL) fluid were collected. Blood samples were used for plasma preparation; total leukocytes were counted in BAL fluid; and lungs were fixed in 10% neutral buffered formalin for histopathological analysis. Based on the strong anti-fibrotic cellular activity of ROCK inhibitors of this invention, the ability of such inhibitors to attenuate fibrosis in the in vivo setting was assessed in several mouse models of fibrotic diseases including the bleomycin induced pulmonary fibrosis. […] The improvement in the overall lung fibrosis, α-smooth muscle actin (αSMA) percentage positive area and total leukocytes count in bronchoalveolar lavage fluid was quantitated by applying the Ashcoft score criteria to the histopathology images, IHC quantitation and flowcytometry respectively.

The test system of series [5] is human oligodendrocyte/neuron progenitor cells. Put plainly: Neurite outgrowth and differentiation of human oligodendrocyte/neuron progenitors. In kind it is cell-based. The protocol:
Thawing and proliferation of human oligodendrocyte/neuron progenitor cells (OPCs). Cryopreserved human oligodendrocyte/neuron progenitors (Millipore Cat. No. CS204496) were recovered and cultured on maltrigel (BD Cat. No. 356324) coated T-25 flask in expansion media containing OPC/neuron basal medium, N21 medium supplement, recombinant human bFGF, PDGF-AA and NT-3. When cells reached 80% confluent, 3 ml of Accutase was applied (Millipore SCR005) to passage cells at 1:4 ratio. Sub-cultured cells were maintained in expansion media for proliferation.
Spontaneous differentiation of human oligodendrocyte/neuron progenitors in 24-well and 96-well plates. Coat plate with 10 μg/ml poly-L-ornithine (Sigma Cat. No. P4957) overnight at room temperature. Remove the poly-L-ornithine solution and rinse the plate with 1×PBS, add 10 μg/ml laminin (Millipore Cat. No. CC095) and incubate at 37° C. for at least 2 hours. Seed cells on the coated plates in expansion media and allowed to attach overnight. The next day expansion media was removed and replaced with freshly prepared spontaneous differentiation media only containing OPC/neuron basal media and N21 media supplement. For 14 day culture, differentiation media was replaced every 3-4 days. Cells were imaged and neurite length was analyzed by IncuCyte S3 Live Cell Analysis System every 4 hours. After 14 days of differentiation, cells were fixed by 4% paraformaldehyde and stained with DAPI and Neuron-specific ß-III tubulin antibody (R&D systems, NL1195R).

For series [6], the target named is recombinant ROCK1 (amino acids 1-535) (Homo sapiens (Human), UniProt Q13464). In words: Z'-lyte kinase assay, ROCK1. In kind it is biochemical. As for the experimental part:
Determination of compounds ROCK inhibitory activity in vitro (Z'lyte assay): recombinant ROCK1 (amino acids 1-535) and ROCK2 (amino acids 1-552) proteins were purchased from ThermoFisher Scientific. Compounds activities were measured by Z'-lyte kinase kit (ThermoFisher Scientific) and IC50s were calculated.
Compounds activities were measured by Z'-lyte kinase kit (ThermoFisher Scientific). […] IC50s were calculated using the GraphPad Prism software with kinase activities data that were collected from 9 points serial dilution of compounds treatment. The ROCK inhibition in A7R5 cells and NIH3T3 (Acta2-Luc) cells was performed as described above.
The percent inhibition rate was calculated by normalizing the kinase activity value obtained with compound treatment against DMSO control value and then applied to the equation, […]. IC50's were calculated using the nonlinear regression curve fit function of the GraphPad Prism software with kinase activities data measured with 9 points 2-fold serial dilution of compounds treatment.

Series [7] can be described thus: Brain and plasma concentrations in mouse by HPLC/MS/MS. In kind it is in vivo. The following applies: 2.5 mg/kg IV. As for the experimental part: Brain and plasma concentrations of select ROCK inhibitors were evaluated in mouse by HPLC/MS/MS at 15 min and 2 hrs following 2.5 mg/kg IV drug administration.

Sequence of recombinant ROCK1 (amino acids 1-535) (Q13464 1-535): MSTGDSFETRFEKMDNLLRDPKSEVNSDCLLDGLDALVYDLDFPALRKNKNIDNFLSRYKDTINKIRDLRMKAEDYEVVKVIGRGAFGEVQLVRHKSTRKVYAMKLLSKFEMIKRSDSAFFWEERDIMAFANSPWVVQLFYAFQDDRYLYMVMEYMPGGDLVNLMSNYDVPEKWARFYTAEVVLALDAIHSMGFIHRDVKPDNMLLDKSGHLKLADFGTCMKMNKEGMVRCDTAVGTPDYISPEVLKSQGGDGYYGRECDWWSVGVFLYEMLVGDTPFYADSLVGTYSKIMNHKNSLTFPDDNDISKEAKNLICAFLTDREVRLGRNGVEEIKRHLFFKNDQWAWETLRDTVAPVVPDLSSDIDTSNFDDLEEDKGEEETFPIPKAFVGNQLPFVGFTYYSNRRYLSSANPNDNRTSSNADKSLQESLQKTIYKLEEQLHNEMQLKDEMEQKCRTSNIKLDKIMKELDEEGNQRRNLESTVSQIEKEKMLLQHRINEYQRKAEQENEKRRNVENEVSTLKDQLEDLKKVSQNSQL
Sequence of recombinant ROCK2 (amino acids 1-552) (O75116 1-552): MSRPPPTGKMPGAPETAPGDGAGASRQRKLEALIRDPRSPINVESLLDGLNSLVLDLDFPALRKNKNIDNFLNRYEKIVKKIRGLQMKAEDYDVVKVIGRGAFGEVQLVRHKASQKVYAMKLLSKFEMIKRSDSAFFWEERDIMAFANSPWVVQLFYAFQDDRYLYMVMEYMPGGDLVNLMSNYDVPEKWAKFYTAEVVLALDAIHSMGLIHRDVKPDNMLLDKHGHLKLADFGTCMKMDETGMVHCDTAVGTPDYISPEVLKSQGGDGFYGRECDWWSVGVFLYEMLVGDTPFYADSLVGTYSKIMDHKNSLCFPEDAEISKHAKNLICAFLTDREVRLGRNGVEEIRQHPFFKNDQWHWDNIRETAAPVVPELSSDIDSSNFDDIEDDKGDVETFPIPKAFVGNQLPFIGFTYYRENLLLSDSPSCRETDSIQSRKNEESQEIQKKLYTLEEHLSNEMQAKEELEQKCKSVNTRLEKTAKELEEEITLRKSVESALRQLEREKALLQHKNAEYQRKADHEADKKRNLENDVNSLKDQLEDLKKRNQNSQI

On to `CNC(C(=O)Nc1ccc(-c2cn[nH]c2)cc1)c1cccc(OC)c1` (stereo not shown) [Example 2, N-(4-(1H-pyrazol-4-yl)phenyl)-2-(3-methoxyphenyl)-2-(methylamino)acetamide], for which the “CSPG mediated neurite outgrowth arrest” value in series [1] is reported as “significantly counteract”. For the same compound, the “phosphorylation of ROCK targets MLC and MYPT1” value in series [2] was “efficiently blocked phosphorylation”. For the same compound, the results for the pIC50 in series [3] and in series [6] were 8.40 and 7.77, respectively. The “Ashcroft fibrotic indices, αSMA percentage positive area and total leukocytes count in bronchoalveolar lavage fluid” value in series [4] is “positive activity”. The “neuronal differentiation and maturation” value in series [5] (14 days culture, Beta III tubulin) was “facility neuronal differentiation and maturation”. The neurite length result in series [5] (various concentrations, 3 days culture) is on record as “significantly increase neurite length”. Also, the concentration at 0.25 hr in series [7] (brain, 0.25 hr, read-out: Mean Conc. at 0.25 hr, Brain) stood at 541 ng/g; in series [7] (plasma, 0.25 hr, read-out: Mean Conc. at 0.25 hr, Plasma), 268 ng/mL. The concentration at 2 hr was 76.6 ng/g in series [7] (brain, 2 hr, read-out: Mean Conc. at 2 hr, Brain) and 25.7 ng/mL in series [7] (plasma, 2 hr, read-out: Mean Conc. at 2 hr, Plasma). The Kp at 0.25 h in series [7] (brain/plasma, 0.25 hr, read-out: Mean Brain/Plasma Ratio at 0.25 hr) came to 2.01. In addition, in series [7] (brain/plasma, 2 hr, read-out: Mean Brain/Plasma Ratio at 2 hr), the Kp at 2 h amounted to 2.99.
